Assay results reported in BindingDB's records for doi:10.7270/Q2Z31X4P (The Scripps Research Institute Molecular Screening Center, 2010).

Biological target: T1, Caspase-3 (Homo sapiens, UniProt P42574)
T1 sequence (P42574 whole entry): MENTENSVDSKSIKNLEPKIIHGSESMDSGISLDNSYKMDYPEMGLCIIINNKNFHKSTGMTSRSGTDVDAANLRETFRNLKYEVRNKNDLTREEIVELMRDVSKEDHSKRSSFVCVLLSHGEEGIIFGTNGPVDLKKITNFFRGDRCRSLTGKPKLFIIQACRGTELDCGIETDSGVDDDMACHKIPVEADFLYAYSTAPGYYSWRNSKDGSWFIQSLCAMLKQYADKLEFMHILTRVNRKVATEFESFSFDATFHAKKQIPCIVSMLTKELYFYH
Test: procaspase-3 activators, dose response, biochemical, absorbance (AID 489014)

Structure (SMILES)	EC50
O=C(CC1=NC2(CCCC2)Cc2ccccc21)C(=O)NN=Cc1ccccc1O [SMR000219463]	> 85.3 µM
O=c1c2c(-c3ccccc3)[nH]n(-c3ccccc3)c-2c(O)n1-c1ccccc1 [SMR000269383]	> 85.3 µM
